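These data come from cells grown in 96-well plates and exposed to compound for 48 hours at five concentrations. GI50 marks 50% less growth.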 Active and inactive are the calls of the source. Cut-off read from the data, not from the text of the source: active = GI50 up to about 1.1 µM and inactive = higher.
What was measured:
Assay in all cases: DTP human tumour cell line panel, 48 h
K562 = test system: K562
LOX IMVI = test system: LOX IMVI
BT-549 = test system: BT-549
HL-60 = test system: HL-60
M14 = test system: M14
OVCAR-4 = test system: OVCAR-4
CAKI-1 = test system: CAKI-1
UACC-62 = test system: UACC-62
786-0 = test system: 786-0
NCI-H460 = test system: NCI-H460
SK-MEL-28 = test system: SK-MEL-28
COLO 205 = test system: COLO 205
U-251 = test system: U-251
RPMI-8226 = test system: RPMI-8226
CCRF-CEM = test system: CCRF-CEM
Hs-578T = test system: Hs-578T
HOP-62 = test system: HOP-62
OVCAR-8 = test system: OVCAR-8
SW-620 = test system: SW-620
T47D = test system: T47D
KM12 = test system: KM12
DU-145 = test system: DU-145
HOP-92 = test system: HOP-92
SK-MEL-5 = test system: SK-MEL-5
NCI-H226 = test system: NCI-H226
NCI/ADR-RES = test system: NCI/ADR-RES
ACHN = test system: ACHN
OVCAR-5 = test system: OVCAR-5
MDA-MB-435 = test system: MDA-MB-435
RXF 393 = test system: RXF 393
SR = test system: SR
MCF7 = test system: MCF7
SK-MEL-2 = test system: SK-MEL-2
SNB-19 = test system: SNB-19
HCT-116 = test system: HCT-116
MDA-MB-231 = test system: MDA-MB-231
Malme-3M = test system: Malme-3M
NCI-H522 = test system: NCI-H522
MDA-N = test system: MDA-N
TK-10 = test system: TK-10
HCT-15 = test system: HCT-15
MOLT-4 = test system: MOLT-4
NCI-H23 = test system: NCI-H23
SF-539 = test system: SF-539
EKVX = test system: EKVX
A549 = test system: A549
SNB-75 = test system: SNB-75
UO-31 = test system: UO-31
SN12C = test system: SN12C
HCC 2998 = test system: HCC 2998
SF-295 = test system: SF-295
HT-29 = test system: HT-29
IGROV-1 = test system: IGROV-1
SF-268 = test system: SF-268
UACC-257 = test system: UACC-257
A498 = test system: A498
SK-OV-3 = test system: SK-OV-3
PC-3 = test system: PC-3
OVCAR-3 = test system: OVCAR-3

Measured: GI50

C/C(=N\Nc1nc2ccccc2[nH]1)c1cc2ccccc2cn1
< 0.0106 µM: HCT-15
active: K562 0.0159 µM | LOX IMVI 0.051 µM | BT-549 0.592 µM | HL-60 < 0.01 µM | M14 < 0.01 µM | OVCAR-4 0.0443 µM | CAKI-1 < 0.01 µM | UACC-62 0.0531 µM | 786-0 0.048 µM | NCI-H460 0.0661 µM | SK-MEL-28 0.0853 µM | COLO 205 < 0.01 µM | U-251 0.0318 µM | RPMI-8226 < 0.01 µM | CCRF-CEM < 0.01 µM | Hs-578T 0.0612 µM | HOP-62 1.11 µM | OVCAR-8 < 0.018 µM | SW-620 < 0.012 µM | T47D < 0.0352 µM | KM12 0.0741 µM | DU-145 0.442 µM | HOP-92 0.0755 µM | SK-MEL-5 0.0494 µM | NCI-H226 0.0382 µM | NCI/ADR-RES 0.0284 µM | ACHN < 0.0139 µM | OVCAR-5 0.288 µM | MDA-MB-435 0.182 µM | RXF 393 0.208 µM | SR 0.0281 µM | MCF7 < 0.01 µM | SK-MEL-2 0.508 µM | SNB-19 0.277 µM | HCT-116 0.0158 µM | MDA-MB-231 0.0261 µM | Malme-3M < 0.01 µM | NCI-H522 < 0.0165 µM | MDA-N 0.171 µM | TK-10 0.122 µM | MOLT-4 0.0117 µM | NCI-H23 0.0345 µM | SF-539 0.1 µM | EKVX < 0.0183 µM | A549 0.0775 µM | SNB-75 0.317 µM | UO-31 0.0115 µM | SN12C < 0.01 µM | SF-295 0.166 µM | HT-29 0.0104 µM | IGROV-1 < 0.0175 µM | SF-268 0.0399 µM | UACC-257 0.0243 µM | A498 0.0993 µM | SK-OV-3 0.0465 µM
inactive: HCC 2998 1.45 µM

COc1ccc(-c2nc3ccccc3c(=S)n2OC(C)=O)cc1
active: K562 0.836 µM | HL-60 1.04 µM | NCI-H460 1.05 µM | IGROV-1 0.143 µM
inactive: LOX IMVI 4.92 µM | BT-549 8.57 µM | M14 4.98 µM | OVCAR-4 8.32 µM | CAKI-1 5.9 µM | UACC-62 2.8 µM | 786-0 3.09 µM | SK-MEL-28 6.5 µM | COLO 205 2.38 µM | U-251 2.56 µM | RPMI-8226 3.27 µM | CCRF-CEM 1.5 µM | Hs-578T 12.2 µM | HOP-62 4.76 µM | OVCAR-8 3.1 µM | SW-620 4.63 µM | T47D 3.5 µM | KM12 1.64 µM | DU-145 5.11 µM | HOP-92 > 25 µM | SK-MEL-5 2.93 µM | NCI-H226 7.85 µM | NCI/ADR-RES 2.54 µM | ACHN 2.99 µM | OVCAR-5 > 25 µM | MDA-MB-435 7.1 µM | RXF 393 8.75 µM | MCF7 5.92 µM | SK-MEL-2 > 25 µM | SNB-19 21.1 µM | HCT-116 1.91 µM | MDA-MB-231 > 25 µM | Malme-3M 4.76 µM | PC-3 1.29 µM | MDA-N 12 µM | TK-10 > 25 µM | MOLT-4 1.15 µM | NCI-H23 1.95 µM | SF-539 4.89 µM | EKVX 6.46 µM | A549 2.5 µM | SNB-75 6.84 µM | UO-31 1.91 µM | SN12C 8.07 µM | HCC 2998 > 25 µM | SF-295 2.25 µM | HT-29 2.55 µM | SF-268 2.99 µM | UACC-257 13.1 µM | A498 23.9 µM | SK-OV-3 5.71 µM
0.755 µM: HCT-15

CC(=O)OCC1OC(N2C(=S)N[C@H]([C@@H](O)[C@H](O)[C@H](O)CO)[C@H]2O)C(OC(C)=O)C(OC(C)=O)C1OC(C)=O (some centres undefined)
inactive: K562 > 100 µM | BT-549 > 100 µM | M14 > 100 µM | OVCAR-4 > 100 µM | CAKI-1 > 100 µM | UACC-62 > 100 µM | 786-0 > 100 µM | NCI-H460 > 100 µM | SK-MEL-28 > 100 µM | COLO 205 > 100 µM | U-251 > 100 µM | RPMI-8226 > 100 µM | CCRF-CEM > 100 µM | Hs-578T > 100 µM | HOP-62 > 100 µM | OVCAR-8 > 100 µM | SW-620 > 100 µM | KM12 > 100 µM | DU-145 > 100 µM | HOP-92 > 100 µM | SK-MEL-5 > 100 µM | NCI/ADR-RES > 100 µM | ACHN > 100 µM | OVCAR-5 > 100 µM | MDA-MB-435 > 100 µM | RXF 393 > 100 µM | SR > 100 µM | MCF7 > 100 µM | SK-MEL-2 > 100 µM | SNB-19 > 100 µM | HCT-116 > 100 µM | MDA-MB-231 > 100 µM | NCI-H522 > 100 µM | PC-3 > 100 µM | MDA-N > 100 µM | MOLT-4 > 100 µM | NCI-H23 > 100 µM | SF-539 > 100 µM | EKVX > 100 µM | A549 > 100 µM | UO-31 > 100 µM | SN12C > 100 µM | OVCAR-3 > 100 µM | HCC 2998 > 100 µM | SF-295 > 100 µM | HT-29 > 100 µM | IGROV-1 > 100 µM | SF-268 > 100 µM | UACC-257 > 100 µM | SK-OV-3 > 100 µM
> 100 µM: HCT-15

From ChEMBL document CHEMBL1201862, “PubChem BioAssay data set” (2004)
